From the kinase profiling compilation of Christmann-Franck et al. (2016)

How the values were obtained:
Assay in all cases: radiometric filter-binding kinase assay
[1] = biological target: MAPK12 (human) (UniProt P53778)
[2] = biological target: MST4 (human) (UniProt Q9P289)
[3] = biological target: ERBB4 (human) (UniProt Q15303)
[4] = biological target: DYRK2 (human) (UniProt Q92630)
[5] = biological target: RIPK2 (human) (UniProt O43353)
[6] = biological target: PIM3 (human) (UniProt Q86V86)
[7] = biological target: AURKB (human) (UniProt Q96GD4)
[8] = biological target: PRKCA (human) (UniProt P17252)
[9] = biological target: RPS6KA3 KD1 KD2 (human) (UniProt P51812)
[10] = biological target: PIM2 (human) (UniProt Q9P1W9)
[11] = biological target: FLT1 (human) (UniProt P17948)
[12] = biological target: MAPK10 (human) (UniProt P53779)
[13] = biological target: TAOK1 (human) (UniProt Q7L7X3)
[14] = biological target: BTK (human) (UniProt Q06187)
[15] = biological target: INSRR (human) (UniProt P14616)
[16] = tested on: PAK2 (human), Q13177 [T402E]
[17] = biological target: MAP2K6 (human) (UniProt P52564)
[18] = biological target: CDK2 CCNA2 (human) (UniProt P20248+P24941)
[19] = biological target: EEF2K (human) (UniProt O00418)
[20] = biological target: AURKA (human) (UniProt O14965)
[21] = biological target: GCK (human) (UniProt Q12851)
[22] = biological target: MAP2K2 (human) (UniProt P36507)
[23] = biological target: PHKG1 (human) (UniProt Q16816)
[24] = biological target: BRSK1 (human) (UniProt Q8TDC3)
[25] = biological target: FGFR1 (human) (UniProt P11362)
[26] = biological target: CHEK1 (human) (UniProt O14757)
[27] = biological target: MELK (human) (UniProt Q14680)
[28] = biological target: PRKACA (human) (UniProt P17612)
[29] = tested on: SGK1 (human), O00141 [S422D]
[30] = biological target: SRPK1 (human) (UniProt Q96SB4)
[31] = biological target: CSNK2A1 (human) (UniProt P68400)
[32] = biological target: EPHA2 (human) (UniProt P29317)
[33] = biological target: MINK1 (human) (UniProt Q8N4C8)
[34] = biological target: MAPK15 (human) (UniProt Q8TD08)
[35] = biological target: MAPKAPK5 (human) (UniProt Q8IW41)
[36] = biological target: MAPKAPK3 (human) (UniProt Q16644)

BTK (human), sequence (Q06187 whole entry, looked up): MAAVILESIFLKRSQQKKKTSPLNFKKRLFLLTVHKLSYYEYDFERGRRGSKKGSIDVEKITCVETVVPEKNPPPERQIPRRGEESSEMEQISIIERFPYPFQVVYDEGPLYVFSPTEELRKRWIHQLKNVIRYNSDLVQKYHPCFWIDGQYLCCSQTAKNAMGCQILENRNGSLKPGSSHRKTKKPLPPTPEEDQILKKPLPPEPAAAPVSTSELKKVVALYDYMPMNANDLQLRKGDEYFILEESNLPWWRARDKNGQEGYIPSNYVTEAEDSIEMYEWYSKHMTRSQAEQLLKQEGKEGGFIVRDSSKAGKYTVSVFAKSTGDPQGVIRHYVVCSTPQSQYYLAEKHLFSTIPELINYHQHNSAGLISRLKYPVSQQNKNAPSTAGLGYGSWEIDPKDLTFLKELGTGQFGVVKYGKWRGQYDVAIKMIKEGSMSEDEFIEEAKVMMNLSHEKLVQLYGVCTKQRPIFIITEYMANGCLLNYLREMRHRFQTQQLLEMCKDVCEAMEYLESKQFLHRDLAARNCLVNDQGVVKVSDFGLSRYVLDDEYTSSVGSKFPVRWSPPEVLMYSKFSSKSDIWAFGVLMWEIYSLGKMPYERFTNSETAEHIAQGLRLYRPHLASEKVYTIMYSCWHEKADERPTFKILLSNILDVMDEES
MST4 (human), sequence (Q9P289 whole entry, looked up): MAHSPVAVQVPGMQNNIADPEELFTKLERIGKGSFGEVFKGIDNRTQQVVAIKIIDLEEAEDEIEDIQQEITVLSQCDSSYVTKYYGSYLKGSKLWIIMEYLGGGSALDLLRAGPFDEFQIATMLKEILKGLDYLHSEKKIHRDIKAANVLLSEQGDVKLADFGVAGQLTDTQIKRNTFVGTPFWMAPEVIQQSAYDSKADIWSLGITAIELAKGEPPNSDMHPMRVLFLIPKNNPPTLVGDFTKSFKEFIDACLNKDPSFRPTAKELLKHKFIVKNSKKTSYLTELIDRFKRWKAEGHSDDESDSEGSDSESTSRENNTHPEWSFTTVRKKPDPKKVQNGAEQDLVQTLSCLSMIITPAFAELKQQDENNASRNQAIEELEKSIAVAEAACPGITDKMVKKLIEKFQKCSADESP
EEF2K (human), sequence (O00418 whole entry, looked up): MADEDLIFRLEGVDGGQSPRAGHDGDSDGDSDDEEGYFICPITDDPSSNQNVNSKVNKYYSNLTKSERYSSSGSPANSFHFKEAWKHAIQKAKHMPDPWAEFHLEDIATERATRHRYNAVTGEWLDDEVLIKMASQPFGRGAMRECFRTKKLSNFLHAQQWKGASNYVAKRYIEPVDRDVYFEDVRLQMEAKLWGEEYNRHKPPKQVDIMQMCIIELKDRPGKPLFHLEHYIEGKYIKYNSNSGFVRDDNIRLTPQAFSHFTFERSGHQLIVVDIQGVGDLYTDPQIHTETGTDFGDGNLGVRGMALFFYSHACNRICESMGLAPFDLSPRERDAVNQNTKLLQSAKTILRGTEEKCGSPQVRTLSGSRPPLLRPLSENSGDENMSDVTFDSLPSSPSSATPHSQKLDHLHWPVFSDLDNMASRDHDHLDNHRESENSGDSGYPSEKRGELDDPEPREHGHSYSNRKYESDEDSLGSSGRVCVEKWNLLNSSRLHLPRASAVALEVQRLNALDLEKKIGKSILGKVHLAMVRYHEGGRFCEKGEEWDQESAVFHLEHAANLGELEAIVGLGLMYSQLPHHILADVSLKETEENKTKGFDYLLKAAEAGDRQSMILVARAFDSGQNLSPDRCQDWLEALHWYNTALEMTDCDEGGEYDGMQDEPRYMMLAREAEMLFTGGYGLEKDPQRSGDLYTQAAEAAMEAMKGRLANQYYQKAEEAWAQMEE
EPHA2 (human), sequence (P29317 whole entry, looked up): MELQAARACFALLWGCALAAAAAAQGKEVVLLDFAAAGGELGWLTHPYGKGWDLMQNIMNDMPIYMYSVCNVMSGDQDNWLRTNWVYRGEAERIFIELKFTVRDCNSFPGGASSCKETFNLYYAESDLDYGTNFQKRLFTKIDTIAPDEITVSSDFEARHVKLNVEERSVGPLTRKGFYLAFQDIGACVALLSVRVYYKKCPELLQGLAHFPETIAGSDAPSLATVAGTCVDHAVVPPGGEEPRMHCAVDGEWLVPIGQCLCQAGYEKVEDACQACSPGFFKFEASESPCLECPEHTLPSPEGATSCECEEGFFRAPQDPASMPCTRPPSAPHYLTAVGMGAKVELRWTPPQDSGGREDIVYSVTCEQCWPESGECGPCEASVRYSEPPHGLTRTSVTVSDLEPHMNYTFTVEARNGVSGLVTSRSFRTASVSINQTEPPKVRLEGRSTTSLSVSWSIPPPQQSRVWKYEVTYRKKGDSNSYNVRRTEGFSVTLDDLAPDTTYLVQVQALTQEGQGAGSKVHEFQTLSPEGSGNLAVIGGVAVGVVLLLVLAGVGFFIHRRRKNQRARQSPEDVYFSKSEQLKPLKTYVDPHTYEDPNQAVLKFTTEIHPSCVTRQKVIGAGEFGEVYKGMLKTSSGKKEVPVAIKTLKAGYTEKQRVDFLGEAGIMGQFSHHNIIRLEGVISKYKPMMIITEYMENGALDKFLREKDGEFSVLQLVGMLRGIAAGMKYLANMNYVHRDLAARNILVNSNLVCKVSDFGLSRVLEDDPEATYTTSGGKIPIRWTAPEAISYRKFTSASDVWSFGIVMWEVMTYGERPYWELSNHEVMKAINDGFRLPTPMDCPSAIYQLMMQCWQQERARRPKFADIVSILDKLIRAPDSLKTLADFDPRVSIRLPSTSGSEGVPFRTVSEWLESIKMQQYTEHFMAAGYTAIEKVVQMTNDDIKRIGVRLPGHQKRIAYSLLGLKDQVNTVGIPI
MAPK12 (human), sequence (P53778 whole entry, looked up): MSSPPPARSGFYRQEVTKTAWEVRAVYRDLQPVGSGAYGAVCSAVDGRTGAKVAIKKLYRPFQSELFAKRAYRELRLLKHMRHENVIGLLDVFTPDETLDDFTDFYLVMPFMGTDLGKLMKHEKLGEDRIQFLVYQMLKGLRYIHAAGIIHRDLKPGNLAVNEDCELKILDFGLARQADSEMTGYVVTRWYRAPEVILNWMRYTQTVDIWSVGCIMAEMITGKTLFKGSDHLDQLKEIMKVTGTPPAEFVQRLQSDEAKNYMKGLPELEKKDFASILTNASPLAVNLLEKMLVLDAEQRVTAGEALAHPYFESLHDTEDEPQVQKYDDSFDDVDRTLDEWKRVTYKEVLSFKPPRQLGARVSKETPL
ERBB4 (human), sequence (Q15303 whole entry, looked up): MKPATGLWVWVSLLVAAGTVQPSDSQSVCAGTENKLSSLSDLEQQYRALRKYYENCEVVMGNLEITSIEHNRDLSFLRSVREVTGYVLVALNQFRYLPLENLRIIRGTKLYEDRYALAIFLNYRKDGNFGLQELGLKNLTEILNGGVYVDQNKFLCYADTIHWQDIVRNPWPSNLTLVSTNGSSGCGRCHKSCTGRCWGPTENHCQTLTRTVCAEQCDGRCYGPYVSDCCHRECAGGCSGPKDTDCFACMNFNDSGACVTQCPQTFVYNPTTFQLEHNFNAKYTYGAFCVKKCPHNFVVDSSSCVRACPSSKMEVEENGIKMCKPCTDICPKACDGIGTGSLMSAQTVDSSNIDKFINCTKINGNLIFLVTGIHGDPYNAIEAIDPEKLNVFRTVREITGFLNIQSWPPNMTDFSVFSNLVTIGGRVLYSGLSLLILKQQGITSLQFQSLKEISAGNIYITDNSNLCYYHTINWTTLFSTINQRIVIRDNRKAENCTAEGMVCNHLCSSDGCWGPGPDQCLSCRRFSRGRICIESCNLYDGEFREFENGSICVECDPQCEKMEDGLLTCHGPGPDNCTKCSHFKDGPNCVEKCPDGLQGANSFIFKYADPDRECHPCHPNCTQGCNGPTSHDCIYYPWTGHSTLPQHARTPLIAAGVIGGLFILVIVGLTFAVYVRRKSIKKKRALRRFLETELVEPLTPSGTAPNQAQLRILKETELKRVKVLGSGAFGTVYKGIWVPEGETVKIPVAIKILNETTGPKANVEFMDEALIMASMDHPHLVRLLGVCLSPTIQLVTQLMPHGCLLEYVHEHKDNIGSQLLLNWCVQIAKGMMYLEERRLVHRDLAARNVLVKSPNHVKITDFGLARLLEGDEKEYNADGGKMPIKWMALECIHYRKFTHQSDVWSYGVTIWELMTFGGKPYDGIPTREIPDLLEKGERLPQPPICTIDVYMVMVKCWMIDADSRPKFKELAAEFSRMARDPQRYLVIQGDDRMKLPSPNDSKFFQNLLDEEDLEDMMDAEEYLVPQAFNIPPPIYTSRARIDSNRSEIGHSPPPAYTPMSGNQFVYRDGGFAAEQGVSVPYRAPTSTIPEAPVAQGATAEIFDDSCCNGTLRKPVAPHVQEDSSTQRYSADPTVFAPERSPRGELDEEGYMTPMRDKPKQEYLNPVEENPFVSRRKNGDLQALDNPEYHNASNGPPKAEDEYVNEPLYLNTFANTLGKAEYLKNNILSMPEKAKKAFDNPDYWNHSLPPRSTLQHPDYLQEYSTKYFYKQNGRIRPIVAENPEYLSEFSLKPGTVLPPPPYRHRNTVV
DYRK2 (human), sequence (Q92630 whole entry, looked up): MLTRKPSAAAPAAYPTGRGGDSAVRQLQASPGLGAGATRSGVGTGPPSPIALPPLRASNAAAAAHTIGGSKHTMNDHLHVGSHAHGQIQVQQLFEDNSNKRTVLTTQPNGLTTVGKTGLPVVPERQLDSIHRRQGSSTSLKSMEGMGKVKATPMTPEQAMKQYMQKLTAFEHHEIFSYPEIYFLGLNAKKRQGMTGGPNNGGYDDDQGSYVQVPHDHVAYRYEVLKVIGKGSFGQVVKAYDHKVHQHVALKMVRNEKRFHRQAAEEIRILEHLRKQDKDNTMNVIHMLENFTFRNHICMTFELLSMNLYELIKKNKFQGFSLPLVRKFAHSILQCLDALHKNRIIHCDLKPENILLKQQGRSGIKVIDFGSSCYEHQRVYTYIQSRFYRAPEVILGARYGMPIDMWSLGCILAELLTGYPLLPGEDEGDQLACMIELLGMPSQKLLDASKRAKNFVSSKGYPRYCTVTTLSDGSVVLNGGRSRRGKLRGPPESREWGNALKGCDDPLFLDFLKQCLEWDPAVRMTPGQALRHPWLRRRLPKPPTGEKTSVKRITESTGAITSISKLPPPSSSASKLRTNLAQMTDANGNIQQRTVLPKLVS

residual activity ([1]; compound 0.01 µM): 109%
residual activity ([1]; compound 0.1 µM): 110%
residual activity ([1]; compound 1.0 µM): 99%
residual activity ([1]; compound 10.0 µM): 110%
residual activity ([2]; compound 0.01 µM): 112%
residual activity ([2]; compound 0.1 µM): 108%
residual activity ([2]; compound 1.0 µM): 102%
residual activity ([2]; compound 10.0 µM): 102%
residual activity ([3]; compound 0.01 µM): 106%
residual activity ([3]; compound 0.1 µM): 107%
residual activity ([3]; compound 1.0 µM): 106%
residual activity ([3]; compound 10.0 µM): 101%
residual activity ([4]; compound 0.01 µM): 100%
residual activity ([4]; compound 0.1 µM): 108%
residual activity ([4]; compound 1.0 µM): 97%
residual activity ([5]; compound 0.01 µM): 110%
residual activity ([5]; compound 0.1 µM): 114%
residual activity ([5]; compound 1.0 µM): 116%
residual activity ([5]; compound 10.0 µM): 100%
residual activity ([6]; compound 0.01 µM): 105%
residual activity ([6]; compound 0.1 µM): 112%
residual activity ([6]; compound 1.0 µM): 94%
residual activity ([6]; compound 10.0 µM): 73%
residual activity ([7]; compound 0.01 µM): 105%
residual activity ([7]; compound 0.1 µM): 106%
residual activity ([7]; compound 1.0 µM): 72%
residual activity ([7]; compound 10.0 µM): 29%
residual activity ([8]; compound 0.01 µM): 104%
residual activity ([8]; compound 0.1 µM): 105%
residual activity ([8]; compound 1.0 µM): 98%
residual activity ([8]; compound 10.0 µM): 96%
residual activity ([9]; compound 0.1 µM): 97%
residual activity ([9]; compound 1.0 µM): 79%
residual activity ([9]; compound 10.0 µM): 28%
residual activity ([10]; compound 0.01 µM): 97%
residual activity ([10]; compound 1.0 µM): 97%
residual activity ([10]; compound 10.0 µM): 110%
residual activity ([11]; compound 0.01 µM): 98%
residual activity ([11]; compound 0.1 µM): 108%
residual activity ([11]; compound 1.0 µM): 89%
residual activity ([11]; compound 10.0 µM): 64%
residual activity ([12]; compound 0.01 µM): 106%
residual activity ([12]; compound 0.1 µM): 106%
residual activity ([12]; compound 10.0 µM): 97%
residual activity ([13]; compound 1.0 µM): 86%
residual activity ([13]; compound 10.0 µM): 96%
residual activity ([14]; compound 0.01 µM): 126%
residual activity ([14]; compound 0.1 µM): 121%
residual activity ([14]; compound 1.0 µM): 97%
residual activity ([14]; compound 10.0 µM): 90%
residual activity ([15]; compound 0.01 µM): 111%
residual activity ([15]; compound 0.1 µM): 111%
residual activity ([15]; compound 1.0 µM): 117%
residual activity ([16]; compound 0.01 µM): 105%
residual activity ([16]; compound 0.1 µM): 119%
residual activity ([16]; compound 1.0 µM): 102%
residual activity ([16]; compound 10.0 µM): 77%
residual activity ([17]; compound 1.0 µM): 87%
residual activity ([17]; compound 10.0 µM): 94%
residual activity ([18]; compound 0.01 µM): 104%
residual activity ([18]; compound 0.1 µM): 101%
residual activity ([18]; compound 1.0 µM): 103%
residual activity ([18]; compound 10.0 µM): 85%
residual activity ([19]; compound 0.01 µM): 108%
residual activity ([19]; compound 0.1 µM): 100%
residual activity ([19]; compound 1.0 µM): 105%
residual activity ([19]; compound 10.0 µM): 100%
residual activity ([20]; compound 0.01 µM): 112%
residual activity ([20]; compound 0.1 µM): 115%
residual activity ([20]; compound 1.0 µM): 98%
residual activity ([20]; compound 10.0 µM): 89%
residual activity ([21]; compound 0.01 µM): 109%
residual activity ([21]; compound 0.1 µM): 116%
residual activity ([21]; compound 1.0 µM): 97%
residual activity ([21]; compound 10.0 µM): 86%
residual activity ([22]; compound 1.0 µM): 114%
residual activity ([22]; compound 10.0 µM): 94%
residual activity ([23]; compound 0.01 µM): 106%
residual activity ([23]; compound 0.1 µM): 108%
residual activity ([23]; compound 1.0 µM): 101%
residual activity ([23]; compound 10.0 µM): 78%
residual activity ([24]; compound 0.01 µM): 110%
residual activity ([24]; compound 0.1 µM): 95%
residual activity ([24]; compound 1.0 µM): 53%
residual activity ([24]; compound 10.0 µM): 11%
residual activity ([25]; compound 0.01 µM): 119%
residual activity ([25]; compound 0.1 µM): 119%
residual activity ([25]; compound 1.0 µM): 105%
residual activity ([25]; compound 10.0 µM): 88%
residual activity ([26]; compound 0.01 µM): 111%
residual activity ([26]; compound 0.1 µM): 106%
residual activity ([26]; compound 1.0 µM): 96%
residual activity ([26]; compound 10.0 µM): 103%
residual activity ([27]; compound 0.01 µM): 115%
residual activity ([27]; compound 0.1 µM): 77%
residual activity ([27]; compound 1.0 µM): 31%
residual activity ([27]; compound 10.0 µM): 22%
residual activity ([28]; compound 0.01 µM): 103%
residual activity ([28]; compound 0.1 µM): 111%
residual activity ([28]; compound 1.0 µM): 102%
residual activity ([28]; compound 10.0 µM): 84%
residual activity ([29]; compound 0.01 µM): 96%
residual activity ([29]; compound 0.1 µM): 96%
residual activity ([29]; compound 1.0 µM): 81%
residual activity ([29]; compound 10.0 µM): 37%
residual activity ([30]; compound 0.01 µM): 106%
residual activity ([30]; compound 0.1 µM): 120%
residual activity ([30]; compound 1.0 µM): 104%
residual activity ([30]; compound 10.0 µM): 90%
residual activity ([31]; compound 0.01 µM): 103%
residual activity ([31]; compound 0.1 µM): 104%
residual activity ([31]; compound 1.0 µM): 91%
residual activity ([31]; compound 10.0 µM): 111%
residual activity ([32]; compound 0.01 µM): 110%
residual activity ([32]; compound 0.1 µM): 118%
residual activity ([32]; compound 1.0 µM): 100%
residual activity ([32]; compound 10.0 µM): 84%
residual activity ([33]; compound 0.01 µM): 121%
residual activity ([33]; compound 0.1 µM): 110%
residual activity ([33]; compound 1.0 µM): 89%
residual activity ([33]; compound 10.0 µM): 74%
residual activity ([35]; compound 0.01 µM): 81%
residual activity ([35]; compound 0.1 µM): 92%
residual activity ([35]; compound 1.0 µM): 110%
residual activity ([35]; compound 10.0 µM): 95%
residual activity ([36]; compound 0.01 µM): 112%
residual activity ([36]; compound 0.1 µM): 112%
residual activity ([36]; compound 1.0 µM): 91%
residual activity ([36]; compound 10.0 µM): 68%
Structure (SMILES): CNc1nc(-c2ccc3c(N)n[nH]c3c2)cc(N2C[C@@H](C(=O)NC3CCCCC3)CC[C@H]2C)n1
residual activity ([34]; compound 0.01 µM): 106%
residual activity ([34]; compound 0.1 µM): 117%
residual activity ([34]; compound 1.0 µM): 99%
residual activity ([34]; compound 10.0 µM): 83%
